{"source": "paper PMC5218480", "about": "(PLoS ONE, 2017)", "system": "MV-4-11 cells", "assay": "Gene expression microarray analysis (Affymetrix PrimeView) and GSEA", "format": "cell-based, human", "parameters": "RFU PODN (11730768_x_at) / Fold change /veh PODN (11730768_x_at) / RFU LINC00158 (11744669_a_at) / Fold change /veh LINC00158 (11744669_a_at) / RFU DUSP10 (11751237_a_at) / Fold change /veh DUSP10 (11751237_a_at) / RFU ID3 (11757404_x_at) / Fold change /veh ID3 (11757404_x_at) / RFU PLEKHG5 (11737974_s_at) / Fold change /veh PLEKHG5 (11737974_s_at) / RFU LRRC4B (11730491_at) / Fold change /veh LRRC4B (11730491_at) / RFU GIMAP4 (11747438_a_at) / Fold change /veh GIMAP4 (11747438_a_at) / RFU KRT8 (11758183_x_at) / Fold change /veh KRT8 (11758183_x_at) / RFU CNN1 (11734310_a_at) / Fold change /veh CNN1 (11734310_a_at) / RFU VPS37D (11726825_at) / Fold change /veh VPS37D (11726825_at) / RFU C10orf10 (11716522_x_at) / Fold change /veh C10orf10 (11716522_x_at) / RFU KIR2DL2 /// KIR2DL4 /// KIR2DL5A /// KIR2DL5B /// KIR2DS1 /// KIR2DS2 /// KIR2DS3 /// KIR2DS4 /// KIR3DL3 /// KIR3DL3 /// KIR3DS1 (11738374_at) / Fold change /veh KIR2DL2 /// KIR2DL4 /// KIR2DL5A /// KIR2DL5B /// KIR2DS1 /// KIR2DS2 /// KIR2DS3 /// KIR2DS4 /// KIR3DL3 /// KIR3DL3 /// KIR3DS1 (11738374_at) / RFU C1QL1 (11718748_at) / Fold change /veh C1QL1 (11718748_at) / RFU TMPRSS4 (11747572_a_at) / Fold change /veh TMPRSS4 (11747572_a_at) / RFU HAMP (11756126_x_at) / Fold change /veh HAMP (11756126_x_at) / RFU RNFT2 (11725882_a_at) / Fold change /veh RNFT2 (11725882_a_at) / RFU NR4A2 (11747474_a_at) / Fold change /veh NR4A2 (11747474_a_at) / RFU ABCC12 (11746883_a_at) / Fold change /veh ABCC12 (11746883_a_at) / RFU TMEM136 (11760407_x_at) / Fold change /veh TMEM136 (11760407_x_at) / RFU CLDN22 /// WWC2 (11732394_at) / Fold change /veh CLDN22 /// WWC2 (11732394_at) / RFU HLA-DPB1 (11760878_x_at) / Fold change /veh HLA-DPB1 (11760878_x_at) / RFU SPINT1 (11716480_a_at) / Fold change /veh SPINT1 (11716480_a_at) / RFU GAP43 (11754022_s_at) / Fold change /veh GAP43 (11754022_s_at) / RFU A4GNT (11735810_at) / Fold change /veh A4GNT (11735810_at) / RFU PRB3 (11715151_x_at) / Fold change /veh PRB3 (11715151_x_at) / RFU TUBB4B (11761932_at) / Fold change /veh TUBB4B (11761932_at) / RFU CAPN14 (11732068_a_at) / Fold change /veh CAPN14 (11732068_a_at) / RFU TMCC2 (11721928_a_at) / Fold change /veh TMCC2 (11721928_a_at) / RFU IRGQ (11745062_a_at) / Fold change /veh IRGQ (11745062_a_at) / RFU FAM174B (11720279_a_at) / Fold change /veh FAM174B (11720279_a_at) / RFU TMPRSS4 (11748680_a_at) / Fold change /veh TMPRSS4 (11748680_a_at) / RFU FAM212B (11763350_a_at) / Fold change /veh FAM212B (11763350_a_at) / RFU PLEKHG5 (11743358_a_at) / Fold change /veh PLEKHG5 (11743358_a_at) / RFU ZSCAN30 (11745921_a_at) / Fold change /veh ZSCAN30 (11745921_a_at) / RFU CMKLR1 (11741424_a_at) / Fold change /veh CMKLR1 (11741424_a_at) / RFU LOC101060620 /// MAPK8IP1 (11723275_at) / Fold change /veh LOC101060620 /// MAPK8IP1 (11723275_at) / RFU SPTSSB (11747773_x_at) / Fold change /veh SPTSSB (11747773_x_at) / RFU PRSS12 (11739890_at) / Fold change /veh PRSS12 (11739890_at) / RFU BIN1 (11741810_x_at) / Fold change /veh BIN1 (11741810_x_at) / RFU WNT11 (11732464_a_at) / Fold change /veh WNT11 (11732464_a_at) / RFU C10orf10 (11716521_a_at) / Fold change /veh C10orf10 (11716521_a_at) / RFU C5orf56 (11738089_at) / Fold change /veh C5orf56 (11738089_at) / RFU CYB561 (11721691_x_at) / Fold change /veh CYB561 (11721691_x_at) / RFU ANKRD19P (11752326_a_at) / Fold change /veh ANKRD19P (11752326_a_at) / RFU OR2T12 /// OR2T33 /// OR2T8 (11738714_s_at) / Fold change /veh OR2T12 /// OR2T33 /// OR2T8 (11738714_s_at) / RFU VCAN (11748164_a_at) / Fold change /veh VCAN (11748164_a_at) / RFU JSRP1 (11732532_at) / Fold change /veh JSRP1 (11732532_at) / RFU KRTAP10-11 (11738290_x_at) / Fold change /veh KRTAP10-11 (11738290_x_at) / RFU MYO3A (11730013_a_at) / Fold change /veh MYO3A (11730013_a_at) / RFU EBF3 (11725865_a_at) / Fold change /veh EBF3 (11725865_a_at) / RFU CAMK2N1 (11719241_x_at) / Fold change /veh CAMK2N1 (11719241_x_at) / RFU C5orf56 (11738088_a_at) / Fold change /veh C5orf56 (11738088_a_at) / RFU OLFML3 (11715873_a_at) / Fold change /veh OLFML3 (11715873_a_at) / RFU LOC100653217 /// NTM (11731650_a_at) / Fold change /veh LOC100653217 /// NTM (11731650_a_at) / RFU MAPK11 (11762145_a_at) / Fold change /veh MAPK11 (11762145_a_at) / RFU FIZ1 (11724087_x_at) / Fold change /veh FIZ1 (11724087_x_at) / RFU OASL (11726364_x_at) / Fold change /veh OASL (11726364_x_at) / RFU SOX15 (11748057_x_at) / Fold change /veh SOX15 (11748057_x_at) / RFU CD79A (11719716_a_at) / Fold change /veh CD79A (11719716_a_at) / RFU HIST1H1D (11736915_at) / Fold change /veh HIST1H1D (11736915_at) / RFU CASKIN2 (11723855_a_at) / Fold change /veh CASKIN2 (11723855_a_at) / RFU LOC730098 (11760151_x_at) / Fold change /veh LOC730098 (11760151_x_at) / RFU OR4N2 (11742367_at) / Fold change /veh OR4N2 (11742367_at) / RFU PRRT2 (11749266_a_at) / Fold change /veh PRRT2 (11749266_a_at) / RFU SNX32 (11753110_a_at) / Fold change /veh SNX32 (11753110_a_at) / RFU CDHR5 (11726645_a_at) / Fold change /veh CDHR5 (11726645_a_at) / RFU RCAN1 (11760418_a_at) / Fold change /veh RCAN1 (11760418_a_at) / RFU FAM167A (11723789_a_at) / Fold change /veh FAM167A (11723789_a_at) / RFU FAM26E (11764081_at) / Fold change /veh FAM26E (11764081_at) / RFU ISYNA1 (11749810_s_at) / Fold change /veh ISYNA1 (11749810_s_at) / RFU ACY1 (11761880_at) / Fold change /veh ACY1 (11761880_at) / RFU 11764098_at / Fold change /veh 11764098_at / RFU SAMD14 (11745864_x_at) / Fold change /veh SAMD14 (11745864_x_at) / RFU NPB (11741838_a_at) / Fold change /veh NPB (11741838_a_at) / RFU TMPRSS6 (11731388_a_at) / Fold change /veh TMPRSS6 (11731388_a_at) / RFU KRTAP10-2 (11738614_at) / Fold change /veh KRTAP10-2 (11738614_at) / RFU ARHGAP8 /// PRR5-ARHGAP8 (11727945_x_at) / Fold change /veh ARHGAP8 /// PRR5-ARHGAP8 (11727945_x_at) / RFU KRTAP5-7 /// NADSYN1 (11734609_at) / Fold change /veh KRTAP5-7 /// NADSYN1 (11734609_at) / RFU RASL12 (11751679_a_at) / Fold change /veh RASL12 (11751679_a_at) / RFU CDKN2B (11736163_a_at) / Fold change /veh CDKN2B (11736163_a_at) / RFU PRF1 (11729649_at) / Fold change /veh PRF1 (11729649_at) / RFU, ZNF638 /// ZNF638-IT1 / Fold change vs veh, ZNF638 /// ZNF638-IT1 / RFU, PANK3 / Fold change vs veh, PANK3 / RFU, SH3YL1 / Fold change vs veh, SH3YL1 / RFU, ZEB2 / Fold change vs veh, ZEB2 / RFU, NRIP1 / Fold change vs veh, NRIP1 / RFU, PTTG1IP / Fold change vs veh, PTTG1IP / RFU, CAPN2 / Fold change vs veh, CAPN2 / RFU, MED14 / Fold change vs veh, MED14 / RFU, SNORA58 / Fold change vs veh, SNORA58 / RFU, C1orf63 / Fold change vs veh, C1orf63 / RFU, LRRFIP1 / Fold change vs veh, LRRFIP1 / RFU, NDUFAF7 / Fold change vs veh, NDUFAF7 / RFU, SLC12A2 / Fold change vs veh, SLC12A2 / RFU, IBTK / Fold change vs veh, IBTK / RFU, ESF1 / Fold change vs veh, ESF1 / Fold change vs veh, TMEM50B / RFU, TAOK1 / Fold change vs veh, TAOK1 / RFU, ACBD3 / Fold change vs veh, ACBD3 / RFU, TMA16 / Fold change vs veh, TMA16 / RFU, RWDD3 / Fold change vs veh, RWDD3 / RFU, BCAT1 / Fold change vs veh, BCAT1 / RFU, EDEM3 / Fold change vs veh, EDEM3 / RFU, TMEM33 / Fold change vs veh, TMEM33 / RFU, WDR75 / Fold change vs veh, WDR75 / RFU, AHCTF1 / Fold change vs veh, AHCTF1 / RFU, TFRC / Fold change vs veh, TFRC / RFU, ZDHHC17 / Fold change vs veh, ZDHHC17 / RFU, NOM1 / Fold change vs veh, NOM1 / RFU, ARL8B / Fold change vs veh, ARL8B / RFU, ZBTB11 / Fold change vs veh, ZBTB11 / RFU, TAMM41 / Fold change vs veh, TAMM41 / RFU, KIAA1704 /// LOC100996395 / Fold change vs veh, KIAA1704 /// LOC100996395 / RFU, ING1 / Fold change vs veh, ING1 / RFU, TRMT61B / Fold change vs veh, TRMT61B / RFU, FUBP3 / Fold change vs veh, FUBP3 / RFU, TP53 / Fold change vs veh, TP53 / RFU, TNKS2 / Fold change vs veh, TNKS2 / RFU, ZFP14 / Fold change vs veh, ZFP14 / RFU, ACTR2 / Fold change vs veh, ACTR2 / RFU, PPP3R1 / Fold change vs veh, PPP3R1 / RFU, PIK3R1 / Fold change vs veh, PIK3R1 / RFU, HNRNPA1 / Fold change vs veh, HNRNPA1 / RFU, RNF170 / Fold change vs veh, RNF170 / RFU, ZNF28 / Fold change vs veh, ZNF28 / RFU, RNGTT / Fold change vs veh, RNGTT / RFU, OGT / Fold change vs veh, OGT / RFU, BRD1 / Fold change vs veh, BRD1 / RFU, MARS / Fold change vs veh, MARS / RFU, ZNF655 / Fold change vs veh, ZNF655 / RFU, FAHD1 / Fold change vs veh, FAHD1 / RFU, BDP1 / Fold change vs veh, BDP1 / RFU, LRRCC1 / Fold change vs veh, LRRCC1 / RFU, ARID1A / Fold change vs veh, ARID1A / RFU, ZNF146 / Fold change vs veh, ZNF146 / RFU, ZNF330 / Fold change vs veh, ZNF330 / RFU, GPN3 / Fold change vs veh, GPN3 / RFU, C9orf123 / Fold change vs veh, C9orf123 / RFU, N4BP2L2 / Fold change vs veh, N4BP2L2 / RFU, ARFIP1 / Fold change vs veh, ARFIP1 / RFU, FAM179B / Fold change vs veh, FAM179B / RFU, BCL10 / Fold change vs veh, BCL10 / RFU, UHRF1BP1L / Fold change vs veh, UHRF1BP1L / RFU, BET1 / Fold change vs veh, BET1 / RFU, CNOT2 / Fold change vs veh, CNOT2 / RFU, ZNF268 / Fold change vs veh, ZNF268 / Fold change vs veh, ZNF507 / RFU, DGCR2 / Fold change vs veh, DGCR2 / RFU, WDSUB1 / Fold change vs veh, WDSUB1 / Fold change vs veh, HSP90B1 /// MIR3652 / RFU, ADSS / Fold change vs veh, ADSS / RFU, GK / Fold change vs veh, GK / RFU, ZNF148 / Fold change vs veh, ZNF148 / RFU, TAF9 / Fold change vs veh, TAF9 / RFU, SLC1A5 / Fold change vs veh, SLC1A5 / RFU, SLMO2 / Fold change vs veh, SLMO2 / RFU, ABCC4 / Fold change vs veh, ABCC4 / RFU, LOC101060439 /// RAP1B / Fold change vs veh, LOC101060439 /// RAP1B / RFU, RFX7 / Fold change vs veh, RFX7 / RFU, GTPBP10 / Fold change vs veh, GTPBP10 / RFU, CNEP1R1 / Fold change vs veh, CNEP1R1 / RFU, BIVM-ERCC5 /// ERCC5 / Fold change vs veh, BIVM-ERCC5 /// ERCC5 / RFU, ILF3 / Fold change vs veh, ILF3 / RFU 11762660_at / Fold change /veh 11762660_at / RFU VCAN (11757783_s_at) / Fold change /veh VCAN (11757783_s_at) / RFU DDX43 (11728927_at) / Fold change /veh DDX43 (11728927_at) / RFU KRT8 (11758188_x_at) / Fold change /veh KRT8 (11758188_x_at) / RFU NKD1 (11759106_at) / Fold change /veh NKD1 (11759106_at) / RFU SRD5A1 (11742802_a_at) / Fold change /veh SRD5A1 (11742802_a_at) / RFU TPSAB1 /// TPSB2 (11721975_s_at) / Fold change /veh TPSAB1 /// TPSB2 (11721975_s_at) / RFU GSTM3 (11746129_a_at) / Fold change /veh GSTM3 (11746129_a_at) / RFU IL23R (11737362_x_at) / Fold change /veh IL23R (11737362_x_at) / RFU TMEM51 (11727254_a_at) / Fold change /veh TMEM51 (11727254_a_at) / RFU PIWIL2 (11732686_x_at) / Fold change /veh PIWIL2 (11732686_x_at) / RFU ORM1 (11744905_x_at) / Fold change /veh ORM1 (11744905_x_at) / RFU CCDC152 (11743942_at) / Fold change /veh CCDC152 (11743942_at) / RFU ECM1 (11717891_a_at) / Fold change /veh ECM1 (11717891_a_at) / RFU IL23R (11748794_a_at) / Fold change /veh IL23R (11748794_a_at) / RFU TNFAIP8L3 (11732012_x_at) / Fold change /veh TNFAIP8L3 (11732012_x_at) / RFU MBOAT4 (11741988_at) / Fold change /veh MBOAT4 (11741988_at) / RFU 11764193_at / Fold change /veh 11764193_at / RFU TMEM53 (11763286_at) / Fold change /veh TMEM53 (11763286_at) / RFU MAGEB2 (11727129_at) / Fold change /veh MAGEB2 (11727129_at) / RFU TMEM200A (11744735_a_at) / Fold change /veh TMEM200A (11744735_a_at) / RFU CCDC152 (11751479_a_at) / Fold change /veh CCDC152 (11751479_a_at) / RFU FAM211A (11726209_a_at) / Fold change /veh FAM211A (11726209_a_at) / RFU RGS16 (11746705_a_at) / Fold change /veh RGS16 (11746705_a_at) / RFU VCAN (11755009_s_at) / Fold change /veh VCAN (11755009_s_at) / RFU RHOB (11743442_s_at) / Fold change /veh RHOB (11743442_s_at) / RFU RGS16 (11720943_a_at) / Fold change /veh RGS16 (11720943_a_at) / RFU RGS16 (11720944_at) / Fold change /veh RGS16 (11720944_at) / RFU, VPS4B / Fold change vs veh, VPS4B / RFU, CREB1 / Fold change vs veh, CREB1 / RFU, DNAJC13 / Fold change vs veh, DNAJC13 / RFU, GNAQ / Fold change vs veh, GNAQ / RFU, CDK5R1 / Fold change vs veh, CDK5R1 / RFU, ZRANB3 / Fold change vs veh, ZRANB3 / RFU, CUL4A / Fold change vs veh, CUL4A / RFU, CCNY / Fold change vs veh, CCNY / RFU, UFL1 / Fold change vs veh, UFL1 / RFU, COG3 / Fold change vs veh, COG3 / RFU, DIAPH2 / Fold change vs veh, DIAPH2 / RFU, SKA2 / Fold change vs veh, SKA2 / RFU, AFF3 / Fold change vs veh, AFF3 / RFU, LMF1 / Fold change vs veh, LMF1 / RFU, IPO11 / Fold change vs veh, IPO11 / RFU, DFFB / Fold change vs veh, DFFB / RFU, FOXP1 / Fold change vs veh, FOXP1 / RFU, CARD8 / Fold change vs veh, CARD8 / RFU, STRN3 / Fold change vs veh, STRN3 / RFU, ADK / Fold change vs veh, ADK / RFU, RASSF2 / Fold change vs veh, RASSF2 / RFU, WIPF1 / Fold change vs veh, WIPF1 / RFU, LARP1B / Fold change vs veh, LARP1B / RFU, RASA1 / Fold change vs veh, RASA1 / RFU, RB1 / Fold change vs veh, RB1 / RFU, PPFIA1 / Fold change vs veh, PPFIA1 / RFU, MAT2A / Fold change vs veh, MAT2A / RFU, CCT5 / Fold change vs veh, CCT5 / RFU, WDR92 / Fold change vs veh, WDR92 / RFU, CUX1 / Fold change vs veh, CUX1 / RFU, TTC7A / Fold change vs veh, TTC7A / RFU, TMEM135 / Fold change vs veh, TMEM135 / RFU, DEPTOR / Fold change vs veh, DEPTOR / RFU, CPM / Fold change vs veh, CPM / RFU, DNAJB6 / Fold change vs veh, DNAJB6 / RFU, CACNA2D3 / Fold change vs veh, CACNA2D3 / RFU, DTX4 / Fold change vs veh, DTX4 / RFU, TFCP2 / Fold change vs veh, TFCP2 / RFU, GMCL1 /// GMCL1P1 / Fold change vs veh, GMCL1 /// GMCL1P1 / RFU, AEBP2 / Fold change vs veh, AEBP2 / RFU, SNHG1 /// SNORD22 /// SNORD25 /// SNORD26 /// SNORD27 /// SNORD28 /// SNORD29 /// SNORD31 / Fold change vs veh, SNHG1 /// SNORD22 /// SNORD25 /// SNORD26 /// SNORD27 /// SNORD28 /// SNORD29 /// SNORD31 / Fold change (Aza/veh), C12orf56 (ProbeSet 11735607_a_at) / Fold change (ACY-1035/veh), C12orf56 (ProbeSet 11735607_a_at) / Fold change (Aza/veh), FGFR1OP (ProbeSet 11751329_s_at) / Fold change (ACY-1035/veh), FGFR1OP (ProbeSet 11751329_s_at) / Fold change (Aza/veh), VPS36 (ProbeSet 11739960_a_at) / Fold change (ACY-1035/veh), VPS36 (ProbeSet 11739960_a_at) / RFU SYPL1 (11715823_x_at) / Fold change /veh SYPL1 (11715823_x_at) / RFU IGFBP7 (11715501_s_at) / Fold change /veh IGFBP7 (11715501_s_at) / RFU REEP3 (11722064_at) / Fold change /veh REEP3 (11722064_at) / RFU IGLL1 (11728026_x_at) / Fold change /veh IGLL1 (11728026_x_at): dose or concentration left out as unconfirmed", "settings": "ProbeSet 11723141_at; LIST B"}
{"smiles": "Nc1ccc(-c2cccs2)cc1NC(=O)c1ccc2c(c1)cc(C1CC1)n2CCN1CCOCC1", "note": "[ACY-1035]", "values": [{"measurement": "RFU, ZBTB11", "value": 113.11, "unit": "RFU"}]}
